Source: the kinase profiling compilation of Christmann-Franck et al. (2016)

What was measured:
Assay in all cases: radiometric filter-binding kinase assay, Kinase HotSpot
Settings in all cases: compound 0.5 µM; ATP 10 µM
AKT1 (human) = AKT1 (human) (UniProt P31749)
AKT2 (human) = AKT2 (human) (UniProt P31751)
AURKA (human) = AURKA (human) (UniProt O14965)
AURKB (human) = AURKB (human) (UniProt Q96GD4)
AXL (human) = AXL (human) (UniProt P30530)
CAMK1G (human) = CAMK1G (human) (UniProt Q96NX5)
CAMKK1 (human) = CAMKK1 (human) (UniProt Q8N5S9)
CDK7 CCNH MNAT1 (human) = CDK7 CCNH MNAT1 (human) (UniProt P50613+P51948+P51946)
CSNK1G2 (human) = CSNK1G2 (human) (UniProt P78368)
Chain of CSNK1G2 (human) (P78368 whole entry, looked up): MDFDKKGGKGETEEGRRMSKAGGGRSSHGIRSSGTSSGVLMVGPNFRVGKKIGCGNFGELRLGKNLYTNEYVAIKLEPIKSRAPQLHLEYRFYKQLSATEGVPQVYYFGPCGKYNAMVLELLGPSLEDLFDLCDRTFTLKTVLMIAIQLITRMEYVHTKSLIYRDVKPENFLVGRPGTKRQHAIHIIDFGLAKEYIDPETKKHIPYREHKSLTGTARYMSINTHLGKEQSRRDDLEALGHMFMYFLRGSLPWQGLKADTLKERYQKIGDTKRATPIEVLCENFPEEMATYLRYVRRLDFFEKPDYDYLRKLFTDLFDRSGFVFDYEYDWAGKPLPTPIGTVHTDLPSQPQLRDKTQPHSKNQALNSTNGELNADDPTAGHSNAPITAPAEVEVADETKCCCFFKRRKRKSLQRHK

CSNK1G3 (human) = CSNK1G3 (human) (UniProt Q9Y6M4)
DAPK2 (human) = DAPK2 (human) (UniProt Q9UIK4)
DMPK (human) = DMPK (human) (UniProt Q09013)
DYRK1B (human) = DYRK1B (human) (UniProt Q9Y463)
DYRK2 (human) = DYRK2 (human) (UniProt Q92630)
EPHA3 (human) = EPHA3 (human) (UniProt P29320)
EPHB4 (human) = EPHB4 (human) (UniProt P54760)
Chain of EPHB4 (human) (P54760 whole entry, looked up): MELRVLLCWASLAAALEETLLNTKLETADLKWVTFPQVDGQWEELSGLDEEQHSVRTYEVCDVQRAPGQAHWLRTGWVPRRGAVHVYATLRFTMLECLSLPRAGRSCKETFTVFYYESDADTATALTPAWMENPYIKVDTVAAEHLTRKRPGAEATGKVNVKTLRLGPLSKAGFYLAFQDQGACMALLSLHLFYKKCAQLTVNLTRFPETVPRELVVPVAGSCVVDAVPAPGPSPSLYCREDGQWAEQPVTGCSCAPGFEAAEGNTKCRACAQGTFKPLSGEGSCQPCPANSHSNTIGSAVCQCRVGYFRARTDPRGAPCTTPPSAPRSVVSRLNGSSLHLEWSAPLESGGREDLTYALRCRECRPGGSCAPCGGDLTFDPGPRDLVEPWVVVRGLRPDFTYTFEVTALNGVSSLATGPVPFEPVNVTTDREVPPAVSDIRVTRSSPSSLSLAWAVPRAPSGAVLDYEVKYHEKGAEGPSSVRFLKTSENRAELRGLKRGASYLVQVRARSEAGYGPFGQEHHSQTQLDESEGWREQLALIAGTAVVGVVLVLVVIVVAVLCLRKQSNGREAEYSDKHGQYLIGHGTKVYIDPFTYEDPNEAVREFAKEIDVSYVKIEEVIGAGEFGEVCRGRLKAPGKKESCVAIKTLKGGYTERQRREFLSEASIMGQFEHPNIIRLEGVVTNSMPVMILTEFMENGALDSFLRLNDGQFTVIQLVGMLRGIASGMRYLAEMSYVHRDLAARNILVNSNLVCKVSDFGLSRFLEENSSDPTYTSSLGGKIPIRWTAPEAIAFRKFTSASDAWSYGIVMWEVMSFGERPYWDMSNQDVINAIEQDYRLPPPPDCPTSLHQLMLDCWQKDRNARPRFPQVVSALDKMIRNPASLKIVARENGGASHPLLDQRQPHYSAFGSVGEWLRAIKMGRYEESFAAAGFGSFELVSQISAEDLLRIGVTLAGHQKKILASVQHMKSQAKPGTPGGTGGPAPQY

FES (human) = FES (human) (UniProt P07332)
FGFR1 (human) = FGFR1 (human) (UniProt P11362)
FGR (human) = FGR (human) (UniProt P09769)
INSR (human) = INSR (human) (UniProt P06213)
Chain of INSR (human) (P06213 whole entry, looked up): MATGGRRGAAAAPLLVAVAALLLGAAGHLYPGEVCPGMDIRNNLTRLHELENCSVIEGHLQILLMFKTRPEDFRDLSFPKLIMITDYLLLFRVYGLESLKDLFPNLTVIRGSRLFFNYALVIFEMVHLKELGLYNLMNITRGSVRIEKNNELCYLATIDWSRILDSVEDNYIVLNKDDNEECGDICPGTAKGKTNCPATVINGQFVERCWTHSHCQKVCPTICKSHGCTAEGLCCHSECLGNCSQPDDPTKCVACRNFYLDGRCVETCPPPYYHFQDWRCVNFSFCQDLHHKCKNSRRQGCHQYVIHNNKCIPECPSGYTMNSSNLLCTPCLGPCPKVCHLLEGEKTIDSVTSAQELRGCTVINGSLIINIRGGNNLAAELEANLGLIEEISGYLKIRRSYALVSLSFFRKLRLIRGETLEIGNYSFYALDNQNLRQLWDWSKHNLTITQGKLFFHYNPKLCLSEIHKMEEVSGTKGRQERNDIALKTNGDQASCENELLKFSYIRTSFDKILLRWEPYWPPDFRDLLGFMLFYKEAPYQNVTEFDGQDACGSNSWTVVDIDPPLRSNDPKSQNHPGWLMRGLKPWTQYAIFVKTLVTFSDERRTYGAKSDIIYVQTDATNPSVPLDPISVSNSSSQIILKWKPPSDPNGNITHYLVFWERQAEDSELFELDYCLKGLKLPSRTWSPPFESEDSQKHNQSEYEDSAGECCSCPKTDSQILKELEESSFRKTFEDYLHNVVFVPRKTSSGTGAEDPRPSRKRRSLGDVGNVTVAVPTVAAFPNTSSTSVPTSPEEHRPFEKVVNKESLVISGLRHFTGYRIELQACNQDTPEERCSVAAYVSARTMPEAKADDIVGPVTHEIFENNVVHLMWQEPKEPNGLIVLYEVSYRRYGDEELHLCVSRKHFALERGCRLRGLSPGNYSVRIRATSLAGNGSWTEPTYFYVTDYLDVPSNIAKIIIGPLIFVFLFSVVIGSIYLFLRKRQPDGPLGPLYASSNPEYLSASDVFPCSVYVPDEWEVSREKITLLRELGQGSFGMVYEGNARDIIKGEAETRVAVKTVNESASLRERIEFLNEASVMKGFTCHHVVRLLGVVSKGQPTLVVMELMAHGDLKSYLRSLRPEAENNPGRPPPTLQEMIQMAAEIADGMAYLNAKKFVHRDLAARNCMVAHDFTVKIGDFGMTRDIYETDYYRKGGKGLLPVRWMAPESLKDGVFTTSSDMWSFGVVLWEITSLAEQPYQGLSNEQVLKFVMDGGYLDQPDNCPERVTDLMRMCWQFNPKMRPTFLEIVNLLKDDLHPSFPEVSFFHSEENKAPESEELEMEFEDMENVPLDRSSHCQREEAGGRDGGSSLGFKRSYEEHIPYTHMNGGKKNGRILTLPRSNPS

IRAK4 (human) = IRAK4 (human) (UniProt Q9NWZ3)
Chain of IRAK4 (human) (Q9NWZ3 whole entry, looked up): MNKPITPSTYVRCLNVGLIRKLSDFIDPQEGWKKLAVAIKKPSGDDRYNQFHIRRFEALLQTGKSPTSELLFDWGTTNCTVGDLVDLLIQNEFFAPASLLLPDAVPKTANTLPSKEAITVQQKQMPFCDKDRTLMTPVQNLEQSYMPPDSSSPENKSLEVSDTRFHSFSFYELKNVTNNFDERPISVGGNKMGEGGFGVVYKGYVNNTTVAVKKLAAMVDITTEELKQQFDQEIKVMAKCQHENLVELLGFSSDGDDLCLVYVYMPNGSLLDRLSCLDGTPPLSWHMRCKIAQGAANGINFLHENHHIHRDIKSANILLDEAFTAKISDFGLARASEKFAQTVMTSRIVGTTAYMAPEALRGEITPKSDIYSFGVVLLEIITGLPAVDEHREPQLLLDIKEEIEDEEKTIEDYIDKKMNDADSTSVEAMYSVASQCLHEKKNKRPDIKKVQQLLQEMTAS

LCK (human) = LCK (human) (UniProt P06239)
MAP3K3 (human) = MAP3K3 (human) (UniProt Q99759)
MAPK12 (human) = MAPK12 (human) (UniProt P53778)
MAPKAPK2 (human) = MAPKAPK2 (human) (UniProt P49137)
MAPKAPK5 (human) = MAPKAPK5 (human) (UniProt Q8IW41)
Chain of MAPKAPK5 (human) (Q8IW41 whole entry, looked up): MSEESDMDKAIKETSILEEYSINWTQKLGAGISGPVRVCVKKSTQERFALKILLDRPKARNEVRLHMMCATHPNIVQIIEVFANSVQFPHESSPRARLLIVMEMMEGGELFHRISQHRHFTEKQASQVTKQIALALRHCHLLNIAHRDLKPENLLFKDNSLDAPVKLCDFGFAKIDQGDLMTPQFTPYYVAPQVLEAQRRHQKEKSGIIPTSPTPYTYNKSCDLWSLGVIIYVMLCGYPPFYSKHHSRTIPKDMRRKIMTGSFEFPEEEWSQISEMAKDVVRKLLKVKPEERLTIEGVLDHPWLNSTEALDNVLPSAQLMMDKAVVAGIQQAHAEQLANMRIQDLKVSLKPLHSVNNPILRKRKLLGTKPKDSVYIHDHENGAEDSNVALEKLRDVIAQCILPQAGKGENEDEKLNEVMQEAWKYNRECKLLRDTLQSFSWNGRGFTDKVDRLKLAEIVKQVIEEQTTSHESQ

MARK2 (human) = MARK2 (human) (UniProt Q7KZI7)
NEK3 (human) = NEK3 (human) (UniProt P51956)
Chain of NEK3 (human) (P51956 whole entry, looked up): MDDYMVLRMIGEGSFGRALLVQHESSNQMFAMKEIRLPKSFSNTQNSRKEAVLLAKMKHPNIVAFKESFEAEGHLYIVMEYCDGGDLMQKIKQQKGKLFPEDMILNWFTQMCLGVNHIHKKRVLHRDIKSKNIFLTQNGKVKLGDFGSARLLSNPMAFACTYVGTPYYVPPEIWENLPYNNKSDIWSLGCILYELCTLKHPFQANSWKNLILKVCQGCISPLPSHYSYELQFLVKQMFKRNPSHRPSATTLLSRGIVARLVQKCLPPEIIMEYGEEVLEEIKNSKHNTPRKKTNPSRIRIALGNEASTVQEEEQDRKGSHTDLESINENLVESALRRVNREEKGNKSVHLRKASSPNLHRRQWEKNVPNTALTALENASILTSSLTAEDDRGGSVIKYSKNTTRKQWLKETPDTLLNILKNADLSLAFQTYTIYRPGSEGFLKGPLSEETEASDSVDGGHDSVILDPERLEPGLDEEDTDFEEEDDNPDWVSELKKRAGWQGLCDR

NEK6 (human) = NEK6 (human) (UniProt Q9HC98)
NTRK3 (human) = NTRK3 (human) (UniProt Q16288)
NUAK1 (human) = NUAK1 (human) (UniProt O60285)
PIM2 (human) = PIM2 (human) (UniProt Q9P1W9)
Chain of PIM2 (human) (Q9P1W9 whole entry, looked up): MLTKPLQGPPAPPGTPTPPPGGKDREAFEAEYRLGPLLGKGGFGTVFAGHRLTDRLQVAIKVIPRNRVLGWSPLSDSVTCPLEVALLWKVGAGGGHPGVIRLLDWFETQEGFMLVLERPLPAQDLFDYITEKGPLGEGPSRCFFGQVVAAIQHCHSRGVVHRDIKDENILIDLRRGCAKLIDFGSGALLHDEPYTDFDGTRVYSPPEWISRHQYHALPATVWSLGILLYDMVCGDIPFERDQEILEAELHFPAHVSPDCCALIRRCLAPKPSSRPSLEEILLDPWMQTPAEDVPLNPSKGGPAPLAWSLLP

PRKCB1 (human) = PRKCB1 (human) (UniProt P05771)
PRKCZ (human) = PRKCZ (human) (UniProt Q05513)
PTK6 (human) = PTK6 (human) (UniProt Q13882)
STK16 (human) = STK16 (human) (UniProt O75716)
STK4 (human) = STK4 (human) (UniProt Q13043)
TAOK1 (human) = TAOK1 (human) (UniProt Q7L7X3)
TTK (human) = TTK (human) (UniProt P33981)
TXK (human) = TXK (human) (UniProt P42681)
MAP4K4 (human) = MAP4K4 (human) (UniProt O95819)
STK3 (human) = STK3 (human) (UniProt Q13188)

Chain of AURKA (human) (O14965 whole entry, looked up): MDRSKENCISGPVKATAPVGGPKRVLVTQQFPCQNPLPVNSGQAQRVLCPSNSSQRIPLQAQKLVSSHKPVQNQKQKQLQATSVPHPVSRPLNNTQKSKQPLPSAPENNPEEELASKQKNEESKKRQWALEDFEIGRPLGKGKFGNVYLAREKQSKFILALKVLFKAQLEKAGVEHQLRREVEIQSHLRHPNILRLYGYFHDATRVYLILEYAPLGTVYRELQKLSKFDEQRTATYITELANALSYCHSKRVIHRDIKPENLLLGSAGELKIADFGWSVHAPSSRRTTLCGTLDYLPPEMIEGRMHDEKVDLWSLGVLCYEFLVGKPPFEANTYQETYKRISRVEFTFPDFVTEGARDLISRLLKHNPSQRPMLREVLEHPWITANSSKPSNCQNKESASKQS

Compound	residual activity (AKT1 (human)) [%]	residual activity (AKT2 (human)) [%]	residual activity (AURKA (human)) [%]	residual activity (AURKB (human)) [%]	residual activity (AXL (human)) [%]	residual activity (CAMK1G (human)) [%]	residual activity (CAMKK1 (human)) [%]	residual activity (CDK7 CCNH MNAT1 (human)) [%]	residual activity (CSNK1G2 (human)) [%]	residual activity (CSNK1G3 (human)) [%]	residual activity (DAPK2 (human)) [%]	residual activity (DYRK1B (human)) [%]	residual activity (DYRK2 (human)) [%]	residual activity (EPHA3 (human)) [%]	residual activity (EPHB4 (human)) [%]	residual activity (FGFR1 (human)) [%]	residual activity (FGR (human)) [%]	residual activity (INSR (human)) [%]	residual activity (IRAK4 (human)) [%]	residual activity (LCK (human)) [%]	other results
N#C/C(=C\c1ccc(O)c(O)c1)C(=O)NCc1ccccc1	101	98.4	92.2	94.4	95.1	98.7	102	120	106	104	98.5	106	103	97.2	88.2	92.8	93.7	93.8	93.7	95.7	residual activity (DMPK (human)): 99.7%; residual activity (FES (human)): 101%; residual activity (MAP3K3 (human)): 102%; residual activity (MAPK12 (human)): 94.2%; residual activity (MAPKAPK2 (human)): 101%; residual activity (MAPKAPK5 (human)): 94.2%; residual activity (MARK2 (human)): 88.2%; residual activity (NEK3 (human)): 95.1%; residual activity (NEK6 (human)): 104%; residual activity (NTRK3 (human)): 98.8%; residual activity (NUAK1 (human)): 90%; residual activity (PIM2 (human)): 97.1%; residual activity (PRKCB1 (human)): 91%; residual activity (PRKCZ (human)): 104%; residual activity (PTK6 (human)): 86.7%; residual activity (STK16 (human)): 99.1%; residual activity (STK4 (human)): 95.9%; residual activity (TAOK1 (human)): 95.1%; residual activity (TTK (human)): 103%; residual activity (TXK (human)): 104%
COc1cc(Nc2c(C#N)cnc3cc(OCCCN4CCN(C)CC4)c(OC)cc23)c(Cl)cc1Cl	94.4	104	86	83.1	37.6	82.7	84.8	113	98.3	98.3	82.9	97	104	31.7	12.5	64.4	11.5	69.8	63.2	1.88	residual activity (MAP3K3 (human)): 11.8%; residual activity (MAP4K4 (human)): 1.03%; residual activity (MAPK12 (human)): 99.9%; residual activity (MAPKAPK2 (human)): 94.7%; residual activity (MAPKAPK5 (human)): 94.7%; residual activity (MARK2 (human)): 99.9%; residual activity (NEK3 (human)): 85.9%; residual activity (NEK6 (human)): 85.3%; residual activity (NUAK1 (human)): 11.4%; residual activity (PIM2 (human)): 111%; residual activity (PRKCB1 (human)): 99.8%; residual activity (PRKCZ (human)): 89.7%; residual activity (PTK6 (human)): 93.1%; residual activity (STK16 (human)): 85.1%; residual activity (STK3 (human)): 13.9%; residual activity (STK4 (human)): 7.4%; residual activity (TAOK1 (human)): 52.8%; residual activity (TTK (human)): 110%; residual activity (TXK (human)): 27.5%
